Experimental data published in the supplement of paper PMC10307832.

Key:
Assay in all cases: relative viability (nuclei count vs DMSO), 5 days (fraction); higher = more cells survive
[1] = compound: CC[C@H](C)N1C=C(C2=C(C=C(C=C21)C3=CN=C(C=C3)N4CCNCC4)C(=O)NCC5=C(C=C(NC5=O)C)C)C [GSK126] + Cc1cc(Nc2cc(N3CCN(C)CC3)nc(Sc3ccc(NC(=O)C4CC4)cc3)n2)n[nH]1 [Tozasertib] (partner 0.1 µM)
Outline: (§1)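 Lung cancer cell lines in 1536-well plates were dosed by pin tool the day after seeding, either with one drug alone or with a fixed anchor-drug dose plus five library-drug doses (not always all listed) in √10 steps. After 5 days, cells were fixed and their nuclei stained in one step (final 0.05% Triton X-100, 1% formaldehyde, 1 ug/ml Hoechst), then counted on 4× images. Relative viability is the nuclei count in treated wells divided by that in vehicle wells. Values are medians of duplicate plates.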

[2] = compound: CC[C@H](C)N1C=C(C2=C(C=C(C=C21)C3=CN=C(C=C3)N4CCNCC4)C(=O)NCC5=C(C=C(NC5=O)C)C)C [GSK126] + CC(C)C[C@H](NC(=O)[C@H](Cc1ccccc1)NC(=O)c1cnccn1)B(O)O [Bortezomib] (partner 0.002 µM)
Outline: as §1

[3] = compound: NS(=O)(=O)OC[C@@H]1C[C@@H](n2ccc3c(N[C@H]4CCc5ccccc54)ncnc32)C[C@@H]1O [MLN4924] + CC1(C)CCC(c2ccc(Cl)cc2)=C(CN2CCN(c3ccc(C(=O)NS(=O)(=O)c4ccc(N[C@H](CCN5CCOCC5)CSc5ccccc5)c(S(=O)(=O)C(F)(F)F)c4)cc3)CC2)C1 [Navitoclax] (partner 0.5 µM)
Outline: as §1

[4] = compound: NS(=O)(=O)OC[C@@H]1C[C@@H](n2ccc3c(N[C@H]4CCc5ccccc54)ncnc32)C[C@@H]1O [MLN4924] + Nc1nc2[nH]cc(CCc3ccc(C(=O)N[C@@H](CCC(=O)O)C(=O)O)cc3)c2c(=O)[nH]1 [Pemetrexed] (partner 0.2 µM)
Outline: as §1

EKVX
relative viability ([1]; first compound 0.08 µM): 0.411
relative viability ([1]; first compound 0.253 µM): 0.443
relative viability ([1]; first compound 0.8 µM): 0.4
relative viability ([1]; first compound 2.53 µM): 0.355
relative viability ([1]; first compound 8 µM): 0.326
relative viability ([2]; first compound 0.08 µM): 1
relative viability ([2]; first compound 0.253 µM): 1.07
relative viability ([2]; first compound 0.8 µM): 1.08
relative viability ([2]; first compound 2.53 µM): 0.992
relative viability ([2]; first compound 8 µM): 1.06
relative viability ([3]; first compound 0.04 µM): 0.861
relative viability ([3]; first compound 0.1265 µM): 0.816
relative viability ([3]; first compound 0.4 µM): 0.352
relative viability ([3]; first compound 1.265 µM): 0.173
relative viability ([3]; first compound 4 µM): 0.148
relative viability ([4]; first compound 0.04 µM): 0.45
relative viability ([4]; first compound 0.1265 µM): 0.411
relative viability ([4]; first compound 0.4 µM): 0.316
relative viability ([4]; first compound 1.265 µM): 0.23
relative viability ([4]; first compound 4 µM): 0.174

NCI-H596
relative viability ([1]; first compound 0.08 µM): 0.933
relative viability ([1]; first compound 0.253 µM): 1.03
relative viability ([1]; first compound 0.8 µM): 0.894
relative viability ([1]; first compound 2.53 µM): 0.89
relative viability ([1]; first compound 8 µM): 0.933
relative viability ([2]; first compound 0.08 µM): 1.09
relative viability ([2]; first compound 0.253 µM): 0.982
relative viability ([2]; first compound 2.53 µM): 1.14
relative viability ([2]; first compound 8 µM): 0.731
relative viability ([3]; first compound 0.04 µM): 0.969
relative viability ([3]; first compound 0.1265 µM): 0.99
relative viability ([3]; first compound 0.4 µM): 0.62
relative viability ([3]; first compound 1.265 µM): 0.68
relative viability ([3]; first compound 4 µM): 0.28
relative viability ([4]; first compound 0.04 µM): 0.49
relative viability ([4]; first compound 0.1265 µM): 0.511
relative viability ([4]; first compound 0.4 µM): 0.405
relative viability ([4]; first compound 1.265 µM): 0.496
relative viability ([4]; first compound 4 µM): 0.437

LOU-NH91
relative viability ([1]; first compound 0.08 µM): 0.741
relative viability ([1]; first compound 0.253 µM): 0.66
relative viability ([1]; first compound 0.8 µM): 0.661
relative viability ([1]; first compound 2.53 µM): 0.685
relative viability ([1]; first compound 8 µM): 0.631
relative viability ([2]; first compound 0.08 µM): 0.444
relative viability ([2]; first compound 0.253 µM): 0.475
relative viability ([2]; first compound 0.8 µM): 0.498
relative viability ([2]; first compound 2.53 µM): 0.439
relative viability ([2]; first compound 8 µM): 0.501
relative viability ([3]; first compound 0.04 µM): 0.649
relative viability ([3]; first compound 0.1265 µM): 0.761
relative viability ([3]; first compound 0.4 µM): 0.556
relative viability ([3]; first compound 1.265 µM): 0.41
relative viability ([3]; first compound 4 µM): 0.314
relative viability ([4]; first compound 0.04 µM): 0.367
relative viability ([4]; first compound 0.1265 µM): 0.366
relative viability ([4]; first compound 0.4 µM): 0.393
relative viability ([4]; first compound 1.265 µM): 0.385
relative viability ([4]; first compound 4 µM): 0.343

NCI-H1437
relative viability ([1]; first compound 0.08 µM): 0.42
relative viability ([1]; first compound 0.253 µM): 0.433
relative viability ([1]; first compound 0.8 µM): 0.4
relative viability ([1]; first compound 2.53 µM): 0.35
relative viability ([1]; first compound 8 µM): 0.388
relative viability ([2]; first compound 0.08 µM): 0.528
relative viability ([2]; first compound 0.253 µM): 0.504
relative viability ([2]; first compound 0.8 µM): 0.442
relative viability ([2]; first compound 2.53 µM): 0.45
relative viability ([2]; first compound 8 µM): 0.518
relative viability ([3]; first compound 0.04 µM): 1.03
relative viability ([3]; first compound 0.1265 µM): 0.906
relative viability ([3]; first compound 0.4 µM): 0.571
relative viability ([3]; first compound 1.265 µM): 0.347
relative viability ([3]; first compound 4 µM): 0.143
relative viability ([4]; first compound 0.04 µM): 0.314
relative viability ([4]; first compound 0.1265 µM): 0.275
relative viability ([4]; first compound 0.4 µM): 0.28
relative viability ([4]; first compound 1.265 µM): 0.208
relative viability ([4]; first compound 4 µM): 0.177
